# Key:
# [1] = molecular target: calmodulin-depending cyclic nucleotide phosphodiesterase (PDE); test: Calmodulin (CaM) inhibitory activity: inhibition of Ca/calmodulin-dependent PDE activity; type: biochemical; conditions: concentration showing 50% inhibition of PDE activity potentiated by CaM; CaM and PDE from bovine brain, [3H]-cGMP, 30°C, 10 minutes
# Procedure: The calmodulin inhibitory activity of a compound was evaluated by using its effect of inhibiting calmodulin-depending cyclic nucleotide phosphodiesterase (PDE) as an index. The assay for PDE inhibitory activity was carried out by the following procedure described by Thompson (Advances in Cyclic Nucleotide Research, 10, 69, 1979) with a modification. The first-stage incubation was carried out at 30°C for 10 minutes with the following reaction mixture: 50 mM Tris-HCl buffer (pH 7.5), 5 mM MgCl2, 1 mg/ml bovine serum albumin, CaM from bovine brain, [^3H]-cGMP, 1 mM CaCl2 or 1 mM EGTA, PDE from bovine brain, and a test compound in a total volume of 0.5 ml. After the incubation, the mixture was heated on a boiling water bath for 1 minute. Then, 50 µl of snake venom (1 mg/ml) was added to the reaction mixture and the whole mixture was incubated at 30°C for 10 minutes. After the incubation, 0.5 ml of AG1-X2 resin (1:1 slurry in water) was added to the mixture and centrifuged at 3000Xrpm for 20 min. The radioactivity of the supernatant solution was measured by a liquid scintillation counter. The IC50 value was determined as the concentration showing 50% inhibition of PDE activity potentiated by CaM.
# [2] = system: Nitrogen-induced Hypoxia Model in Mouse; test: Activity on nitrogen-induced hypoxia model in mouse; type: in vivo; conditions: 30 mg/kg, p.o.; 60 minutes after administration; time to respiratory standstill over that of a control group (100%)
# Procedure: Nine to ten mice per group were each orally given […] of a test compound. After 60 minutes from the administration, each mouse was put in a 500 mℓ-volume transparent container having a vent hole, and nitrogen gas was introduced into the container at a rate of 5000 mℓ/min. The time from the start of nitrogen introduction to respiratory standstill was measured, and a rate of increase of the time over that of a control group (100%) was obtained.
SMILES,IC50 [1] [µM],Rate of Increase of Survival Time [2] [%]
"COc1ccc(Cn2nc(CCN3CCN(c4cccc(Cl)c4C)CC3)c3cc(OC)c(OC)cc32)cc1OC [Example 12, 3-(2-(4-(3-Chloro-2-methylphenyl)-1-piperazinyl)-ethyl)-5 6-dimethoxy-1-(3,4-dimethoxybenzyl)-1H-indazole]",3.1,19.2
"NCCCCCCNS(=O)(=O)c1cccc2c(Cl)cccc12 [Example W-7, reference compound]",33.5,
"COc1cc2c(CCN3CCN(c4cccc(Cl)c4C)CC3)nn(Cc3c[nH]cn3)c2cc1OC [Example 15, 3-(2-(4-(3-Chloro-2-methylphenyl)-1-piperazinyl)-ethyl)-5,6-dimethoxy-1-(4-imidazolylmethyl)-1H-indazole]",5.5,15.1
